Laboratory results reported in the kinase profiling compilation of Christmann-Franck et al. (2016).

Columns and labels:
Assay in all cases: radiometric filter-binding kinase assay, Kinase HotSpot
Conditions in all cases: compound 0.5 µM; ATP 10 µM
ABL1 (human) = ABL1 (human) (UniProt P00519)
ACVR1 (human) = ACVR1 (human) (UniProt Q04771)
ADRBK2 (human) = ADRBK2 (human) (UniProt P35626)
AKT3 (human) = AKT3 (human) (UniProt Q9Y243)
BLK (human) = BLK (human) (UniProt P51451)
BRSK1 (human) = BRSK1 (human) (UniProt Q8TDC3)
CAMK1G (human) = CAMK1G (human) (UniProt Q96NX5)
CDC42BPB (human) = CDC42BPB (human) (UniProt Q9Y5S2)
CDK3 CCNE1 (human) = CDK3 CCNE1 (human) (UniProt Q00526+P24864)
CDK5 CDK5R1 p25 (human) = CDK5 CDK5R1 p25 (human) (UniProt Q00535+Q15078)
CDK7 CCNH MNAT1 (human) = CDK7 CCNH MNAT1 (human) (UniProt P50613+P51948+P51946)
CSNK1D (human) = CSNK1D (human) (UniProt P48730)
CSNK1G2 (human) = CSNK1G2 (human) (UniProt P78368)
CSNK2A1 (human) = CSNK2A1 (human) (UniProt P68400)
DAPK3 (human) = DAPK3 (human) (UniProt O43293)
DYRK1A (human) = DYRK1A (human) (UniProt Q13627)
DYRK1B (human) = DYRK1B (human) (UniProt Q9Y463)
DYRK4 (human) = DYRK4 (human) (UniProt Q9NR20)
EPHA5 (human) = EPHA5 (human) (UniProt P54756)
EPHA7 (human) = EPHA7 (human) (UniProt Q15375)
FGFR4 (human) = FGFR4 (human) (UniProt P22455)
FLT3 (human) = FLT3 (human) (UniProt P36888)
GRK4 (human) = GRK4 (human) (UniProt P32298)
IGF1R (human) = IGF1R (human) (UniProt P08069)
MAP4K5 (human) = MAP4K5 (human) (UniProt Q9Y4K4)
MAPK11 (human) = MAPK11 (human) (UniProt Q15759)
MYLK2 (human) = MYLK2 (human) (UniProt Q9H1R3)
NEK2 (human) = NEK2 (human) (UniProt P51955)
NEK3 (human) = NEK3 (human) (UniProt P51956)
PBK (human) = PBK (human) (UniProt Q96KB5)
PLK3 (human) = PLK3 (human) (UniProt Q9H4B4)
PRKCB2 (human) = PRKCB2 (human) (UniProt P05771)
RIPK2 (human) = RIPK2 (human) (UniProt O43353)
ROS1 (human) = ROS1 (human) (UniProt P08922)
RPS6KA2 KD1 KD2 (human) = RPS6KA2 KD1 KD2 (human) (UniProt Q15349)
RPS6KA5 KD2 (human) = RPS6KA5 KD2 (human) (UniProt O75582)
SGK3 (human) = SGK3 (human) (UniProt Q96BR1)
SIK2 (human) = SIK2 (human) (UniProt Q9H0K1)
TLK2 (human) = TLK2 (human) (UniProt Q86UE8)
TSSK1B (human) = TSSK1B (human) (UniProt Q9BXA7)
WEE1 (human) = WEE1 (human) (UniProt P30291)

PLK3 (human), sequence (Q9H4B4 whole entry, looked up): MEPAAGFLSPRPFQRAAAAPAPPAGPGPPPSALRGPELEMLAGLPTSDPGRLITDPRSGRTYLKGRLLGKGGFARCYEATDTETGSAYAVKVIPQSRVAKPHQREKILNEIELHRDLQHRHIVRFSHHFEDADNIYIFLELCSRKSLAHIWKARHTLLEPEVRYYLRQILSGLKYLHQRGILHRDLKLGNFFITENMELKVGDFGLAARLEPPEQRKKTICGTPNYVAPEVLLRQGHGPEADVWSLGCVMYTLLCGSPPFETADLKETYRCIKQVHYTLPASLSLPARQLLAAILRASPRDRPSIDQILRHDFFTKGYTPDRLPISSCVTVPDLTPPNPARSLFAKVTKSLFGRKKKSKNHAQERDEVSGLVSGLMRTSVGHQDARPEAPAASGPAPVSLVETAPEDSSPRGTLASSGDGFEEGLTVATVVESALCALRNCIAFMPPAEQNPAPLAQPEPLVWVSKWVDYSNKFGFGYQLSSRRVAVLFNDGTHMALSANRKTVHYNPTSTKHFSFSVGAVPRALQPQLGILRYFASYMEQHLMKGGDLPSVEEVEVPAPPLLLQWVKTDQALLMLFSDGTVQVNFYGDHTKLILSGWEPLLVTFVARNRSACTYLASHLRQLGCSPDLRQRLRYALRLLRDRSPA
FGFR4 (human), sequence (P22455 whole entry, looked up): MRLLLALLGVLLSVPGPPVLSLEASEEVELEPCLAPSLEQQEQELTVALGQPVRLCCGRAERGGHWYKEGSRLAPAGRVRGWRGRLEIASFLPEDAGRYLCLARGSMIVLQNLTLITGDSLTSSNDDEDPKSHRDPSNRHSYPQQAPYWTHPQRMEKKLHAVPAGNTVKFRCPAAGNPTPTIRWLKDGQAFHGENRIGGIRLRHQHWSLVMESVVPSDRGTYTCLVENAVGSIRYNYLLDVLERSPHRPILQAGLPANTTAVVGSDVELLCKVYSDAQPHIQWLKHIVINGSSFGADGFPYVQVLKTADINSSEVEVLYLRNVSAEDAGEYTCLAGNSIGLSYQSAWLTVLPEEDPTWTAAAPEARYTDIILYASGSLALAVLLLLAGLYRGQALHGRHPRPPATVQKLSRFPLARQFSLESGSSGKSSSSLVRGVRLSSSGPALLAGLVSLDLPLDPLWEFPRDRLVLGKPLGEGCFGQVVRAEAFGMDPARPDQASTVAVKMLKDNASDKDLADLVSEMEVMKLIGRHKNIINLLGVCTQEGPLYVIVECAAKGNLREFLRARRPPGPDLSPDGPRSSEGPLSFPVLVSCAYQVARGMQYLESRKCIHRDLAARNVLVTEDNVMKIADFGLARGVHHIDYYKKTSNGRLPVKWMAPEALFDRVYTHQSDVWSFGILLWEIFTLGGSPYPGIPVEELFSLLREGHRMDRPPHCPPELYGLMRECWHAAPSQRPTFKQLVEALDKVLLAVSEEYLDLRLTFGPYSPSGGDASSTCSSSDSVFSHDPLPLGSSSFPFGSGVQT
CDK5 CDK5R1 p25 (human), sequence (Q00535 whole entry, looked up): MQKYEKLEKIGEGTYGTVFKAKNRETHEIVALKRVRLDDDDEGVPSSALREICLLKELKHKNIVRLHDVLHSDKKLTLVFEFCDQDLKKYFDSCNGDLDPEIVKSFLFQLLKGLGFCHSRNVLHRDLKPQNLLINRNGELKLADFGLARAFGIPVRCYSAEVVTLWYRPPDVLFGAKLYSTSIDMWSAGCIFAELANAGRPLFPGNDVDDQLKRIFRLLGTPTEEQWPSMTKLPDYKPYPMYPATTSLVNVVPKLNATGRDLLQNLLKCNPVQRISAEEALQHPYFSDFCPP
CDK5 CDK5R1 p25 (human), sequence (Q15078 whole entry, looked up): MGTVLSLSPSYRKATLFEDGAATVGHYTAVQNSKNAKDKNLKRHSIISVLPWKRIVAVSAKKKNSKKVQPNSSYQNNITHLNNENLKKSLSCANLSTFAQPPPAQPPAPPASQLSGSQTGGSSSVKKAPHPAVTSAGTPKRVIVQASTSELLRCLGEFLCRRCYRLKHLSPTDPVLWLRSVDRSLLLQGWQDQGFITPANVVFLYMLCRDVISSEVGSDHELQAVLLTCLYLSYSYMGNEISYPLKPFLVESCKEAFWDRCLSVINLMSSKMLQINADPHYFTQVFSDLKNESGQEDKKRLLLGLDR
ACVR1 (human), sequence (Q04771 whole entry, looked up): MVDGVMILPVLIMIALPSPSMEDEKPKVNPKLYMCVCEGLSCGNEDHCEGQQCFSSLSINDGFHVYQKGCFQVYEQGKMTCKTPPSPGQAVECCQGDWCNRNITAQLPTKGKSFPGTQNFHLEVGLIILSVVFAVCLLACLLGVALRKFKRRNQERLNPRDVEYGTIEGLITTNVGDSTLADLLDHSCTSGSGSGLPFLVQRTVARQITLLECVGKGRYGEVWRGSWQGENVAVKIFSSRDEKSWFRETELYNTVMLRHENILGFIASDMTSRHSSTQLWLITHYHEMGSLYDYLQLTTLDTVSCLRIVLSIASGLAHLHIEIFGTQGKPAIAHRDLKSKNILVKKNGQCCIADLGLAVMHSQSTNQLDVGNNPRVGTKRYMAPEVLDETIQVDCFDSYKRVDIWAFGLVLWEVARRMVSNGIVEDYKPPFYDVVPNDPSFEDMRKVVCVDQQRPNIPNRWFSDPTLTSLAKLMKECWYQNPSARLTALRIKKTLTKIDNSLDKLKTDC
CDC42BPB (human), sequence (Q9Y5S2 whole entry, looked up): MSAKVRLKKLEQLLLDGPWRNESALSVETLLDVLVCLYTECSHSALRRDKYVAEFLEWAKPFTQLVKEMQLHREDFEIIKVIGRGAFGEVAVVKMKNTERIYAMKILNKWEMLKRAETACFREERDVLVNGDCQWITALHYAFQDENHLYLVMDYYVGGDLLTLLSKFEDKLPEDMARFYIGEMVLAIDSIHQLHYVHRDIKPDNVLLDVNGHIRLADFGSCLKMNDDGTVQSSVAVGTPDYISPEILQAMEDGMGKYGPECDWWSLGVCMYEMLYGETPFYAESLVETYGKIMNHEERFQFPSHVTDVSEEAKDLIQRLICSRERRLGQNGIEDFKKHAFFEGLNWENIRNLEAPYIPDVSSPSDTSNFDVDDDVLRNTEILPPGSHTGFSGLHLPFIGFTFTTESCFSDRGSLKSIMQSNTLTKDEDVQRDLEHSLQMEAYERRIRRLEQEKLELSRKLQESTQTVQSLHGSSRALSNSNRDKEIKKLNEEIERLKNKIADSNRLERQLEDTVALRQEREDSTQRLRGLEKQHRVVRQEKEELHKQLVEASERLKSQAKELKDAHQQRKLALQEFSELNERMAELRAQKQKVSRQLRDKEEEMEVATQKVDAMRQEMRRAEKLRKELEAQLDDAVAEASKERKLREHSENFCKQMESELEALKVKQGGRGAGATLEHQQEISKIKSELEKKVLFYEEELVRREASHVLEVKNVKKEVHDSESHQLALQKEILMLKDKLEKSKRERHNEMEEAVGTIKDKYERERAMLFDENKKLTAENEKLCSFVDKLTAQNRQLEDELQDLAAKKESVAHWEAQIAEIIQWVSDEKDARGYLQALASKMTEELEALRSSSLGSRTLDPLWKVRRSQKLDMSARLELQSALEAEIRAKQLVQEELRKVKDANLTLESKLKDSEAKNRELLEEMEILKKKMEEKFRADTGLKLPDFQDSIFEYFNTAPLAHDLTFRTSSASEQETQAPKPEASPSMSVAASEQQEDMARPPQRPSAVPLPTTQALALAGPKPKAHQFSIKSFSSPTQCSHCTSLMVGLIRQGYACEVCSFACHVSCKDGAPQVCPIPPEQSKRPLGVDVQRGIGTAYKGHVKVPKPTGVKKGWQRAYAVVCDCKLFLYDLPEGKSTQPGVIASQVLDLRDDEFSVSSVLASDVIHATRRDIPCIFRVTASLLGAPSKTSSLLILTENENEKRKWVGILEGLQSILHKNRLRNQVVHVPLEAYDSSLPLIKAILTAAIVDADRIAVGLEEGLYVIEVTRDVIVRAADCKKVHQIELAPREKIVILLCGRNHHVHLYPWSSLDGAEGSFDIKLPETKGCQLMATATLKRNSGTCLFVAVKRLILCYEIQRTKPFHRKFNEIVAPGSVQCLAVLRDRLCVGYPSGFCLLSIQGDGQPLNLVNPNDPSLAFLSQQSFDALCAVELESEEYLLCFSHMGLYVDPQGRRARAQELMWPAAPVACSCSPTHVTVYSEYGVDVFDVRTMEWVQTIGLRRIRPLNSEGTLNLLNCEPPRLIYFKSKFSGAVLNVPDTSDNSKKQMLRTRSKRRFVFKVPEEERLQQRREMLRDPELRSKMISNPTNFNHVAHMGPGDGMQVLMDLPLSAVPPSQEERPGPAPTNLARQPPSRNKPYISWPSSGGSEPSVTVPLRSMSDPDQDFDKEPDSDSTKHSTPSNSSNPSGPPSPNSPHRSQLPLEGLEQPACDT
RPS6KA5 KD2 (human), sequence (O75582 whole entry, looked up): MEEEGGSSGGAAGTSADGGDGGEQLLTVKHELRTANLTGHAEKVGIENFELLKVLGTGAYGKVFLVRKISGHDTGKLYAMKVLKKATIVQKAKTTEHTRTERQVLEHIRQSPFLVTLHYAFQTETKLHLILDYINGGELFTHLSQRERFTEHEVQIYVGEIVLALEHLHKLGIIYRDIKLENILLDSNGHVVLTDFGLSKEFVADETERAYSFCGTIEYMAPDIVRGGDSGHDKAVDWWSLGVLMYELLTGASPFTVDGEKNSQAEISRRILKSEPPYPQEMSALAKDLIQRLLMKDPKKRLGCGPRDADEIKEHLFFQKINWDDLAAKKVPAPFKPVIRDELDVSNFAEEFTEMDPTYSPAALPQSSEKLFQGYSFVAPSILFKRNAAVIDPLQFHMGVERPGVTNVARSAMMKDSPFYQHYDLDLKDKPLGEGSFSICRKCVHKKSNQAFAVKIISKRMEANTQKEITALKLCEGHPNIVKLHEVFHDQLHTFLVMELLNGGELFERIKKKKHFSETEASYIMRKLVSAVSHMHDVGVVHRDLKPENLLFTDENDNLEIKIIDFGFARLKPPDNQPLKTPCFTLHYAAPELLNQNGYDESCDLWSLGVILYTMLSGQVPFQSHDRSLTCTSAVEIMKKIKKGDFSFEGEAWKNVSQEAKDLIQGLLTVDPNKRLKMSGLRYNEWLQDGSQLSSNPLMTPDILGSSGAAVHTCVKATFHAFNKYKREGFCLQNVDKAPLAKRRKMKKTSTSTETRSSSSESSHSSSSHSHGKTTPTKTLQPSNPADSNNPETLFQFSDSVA

Compound: CO[C@H]1CC2CC[C@@H](C)[C@@](O)(O2)C(=O)C(=O)N2CCCC[C@H]2C(=O)OC([C@H](C)C[C@@H]2CC[C@@H](O)[C@H](OC)C2)CC(=O)[C@H](C)/C=C(\C)[C@@H](O)[C@@H](OC)C(=O)[C@H](C)C[C@H](C)/C=C/C=C/C=C/1C (stereo partly specified)
- residual activity (ABL1 (human)): 103%
- residual activity (ACVR1 (human)): 94.6%
- residual activity (ADRBK2 (human)): 98%
- residual activity (AKT3 (human)): 97.8%
- residual activity (BLK (human)): 94.8%
- residual activity (BRSK1 (human)): 99.9%
- residual activity (CAMK1G (human)): 93%
- residual activity (CDC42BPB (human)): 103%
- residual activity (CDK3 CCNE1 (human)): 102%
- residual activity (CDK5 CDK5R1 p25 (human)): 96.3%
- residual activity (CDK7 CCNH MNAT1 (human)): 98.2%
- residual activity (CSNK1D (human)): 110%
- residual activity (CSNK1G2 (human)): 94.8%
- residual activity (CSNK2A1 (human)): 94.7%
- residual activity (DAPK3 (human)): 104%
- residual activity (DYRK1A (human)): 94.3%
- residual activity (DYRK1B (human)): 108%
- residual activity (DYRK4 (human)): 99.8%
- residual activity (EPHA5 (human)): 94.7%
- residual activity (EPHA7 (human)): 89.7%
- residual activity (FGFR4 (human)): 76.6%
- residual activity (FLT3 (human)): 95.6%
- residual activity (GRK4 (human)): 96.1%
- residual activity (IGF1R (human)): 112%
- residual activity (MAP4K5 (human)): 110%
- residual activity (MAPK11 (human)): 113%
- residual activity (MYLK2 (human)): 103%
- residual activity (NEK2 (human)): 107%
- residual activity (NEK3 (human)): 99%
- residual activity (PBK (human)): 103%
- residual activity (PLK3 (human)): 96.2%
- residual activity (PRKCB2 (human)): 89.1%
- residual activity (RIPK2 (human)): 90.5%
- residual activity (ROS1 (human)): 85%
- residual activity (RPS6KA2 KD1 KD2 (human)): 89.5%
- residual activity (RPS6KA5 KD2 (human)): 106%
- residual activity (SGK3 (human)): 98.1%
- residual activity (SIK2 (human)): 94.3%
- residual activity (TLK2 (human)): 94.4%
- residual activity (TSSK1B (human)): 103%
- residual activity (WEE1 (human)): 93.3%

Compound: COc1cc2ncnc(Nc3cccc(Cl)c3)c2cc1OC
- residual activity (ABL1 (human)): 61.8%
- residual activity (ACVR1 (human)): 108%
- residual activity (ADRBK2 (human)): 99.9%
- residual activity (AKT3 (human)): 98.3%
- residual activity (BLK (human)): 68.2%
- residual activity (BRSK1 (human)): 93.1%
- residual activity (CAMK1G (human)): 93.6%
- residual activity (CDC42BPB (human)): 84.9%
- residual activity (CDK3 CCNE1 (human)): 95.2%
- residual activity (CDK5 CDK5R1 p25 (human)): 87.3%
- residual activity (CDK7 CCNH MNAT1 (human)): 99.9%
- residual activity (CSNK1D (human)): 100%
- residual activity (CSNK1G2 (human)): 97.1%
- residual activity (DAPK3 (human)): 94.6%
- residual activity (DYRK1A (human)): 90.7%
- residual activity (DYRK1B (human)): 104%
- residual activity (DYRK4 (human)): 91.7%
- residual activity (EPHA5 (human)): 68.3%
- residual activity (EPHA7 (human)): 65%
- residual activity (FGFR4 (human)): 78.7%
- residual activity (FLT3 (human)): 37.6%
- residual activity (GRK4 (human)): 102%
- residual activity (IGF1R (human)): 75.9%
- residual activity (MAP4K5 (human)): 59.5%
- residual activity (MAPK11 (human)): 97.5%
- residual activity (MYLK2 (human)): 90.1%
- residual activity (NEK2 (human)): 88.3%
- residual activity (NEK3 (human)): 84.3%
- residual activity (PBK (human)): 70.9%
- residual activity (PLK3 (human)): 92.3%
- residual activity (PRKCB2 (human)): 95.5%
- residual activity (RIPK2 (human)): 45.4%
- residual activity (ROS1 (human)): 91.2%
- residual activity (RPS6KA2 KD1 KD2 (human)): 85.5%
- residual activity (RPS6KA5 KD2 (human)): 97.8%
- residual activity (SGK3 (human)): 90.9%
- residual activity (SIK2 (human)): 98.7%
- residual activity (TLK2 (human)): 93.9%
- residual activity (TSSK1B (human)): 95.7%
- residual activity (WEE1 (human)): 92.4%
